The subject of the assay is BMDC primary cells. The assay can be described thus: Luc mRNA LNP transfection on BMDC primary cells (Embodiment 21, Table 9). The conditions noted are these: 16 h, ONE-Glo Luciferase. Type of assay: cell-based, C57BL/6 mice. How it is done: Preparation method: the same as that in Embodiment 17.
Animal preparation: 6-week-old female C57BL/6 mice with the body weight about 20 g were selected. A feeding environment was an SPF stage feeding room. Animal tests were strictly performed according to the guide of the national health institute and the animal ethics requirements.
Cell acquisition: C57BL/6 mice were killed through cervical dislocation, and were soaked for 5 min in 75% ethyl alcohol. Dissection was performed to obtain thigh and calf tibiae of the mice. Attached muscles were removed to expose sclerotin. Then, bone marrow in tibiae was blown out by using a 1 mL injector sucked with PBS. After the bone marrow was blown away, impurities were filtered away by a 50 μm filter screen. A red blood cell lysis buffer (3-4 mL) was added into an obtained filtrate. Then, after placement for 5 min, 800 g centrifugation was performed for 5 min to remove a supernatant. The obtained cells were placed into a 1640 culture medium (containing 10% fetal calf serum, 20 ng/mL GMCSF and 10 ng/mL IL4) to be resuspended, and were inoculated into a 6-well plate at an inoculation density of 100000 cells/ml culture medium. The materials were placed into a 37° C. cell incubator containing 5% CO2. Half liquid change was performed once every 2 days. Suspended cells and loose wall attached cells were collected on the seventh day, and were inoculated to a 96-well all-white ELISA plate at the inoculation density of 20000 cells per well, and the volume of a culture medium was 100 μL.
Cell transfection: lipid nanoparticles coated with luciferase mRNA were added into a 96-well white ELISA plate laid with primary cells. The adding volume of the mRNA lipid nanoparticles in each well was controlled to be 10 μL. Then, the materials were put into a 37° C. incubator containing 5% CO2 for 16 h.
Transfection efficiency detection: 20 μL of a substrate ONE-Glo™ Luciferase was added into each well of a 96-well all-white ELISA plate, and after 1 min, detection was performed by a multifunctional or multimode microplate reader.
Compound `CCCCCCCCCCC(COC(=O)C(CCCC)CCCCCCCCCC)OC(=O)CCCN(C)C` (stereo not shown) [E7C104A9] had a Luciferase luminescence intensity of 3.9E+04.
To `CCCCCCCCCCCCC(CCCC)C(=O)OCC(CCCCCCCCCC)OC(=O)CCCN(C)C` (stereo not shown) [E7C106A9] belongs 3.9E+04; to `CCCCCCCCCCC(COC(=O)C(CCCCCCC)CCCCCCC)OC(=O)CCCN(C)C` (stereo not shown) [E7C114A9, 2-((4-(Dimethylamino)Butanoyl)Oxy) Dodecyl 2-Heptylnonanoate], 6.6E+04.
`CCCCCCCCCCC(COC(=O)C(CCCCCCC)CCCCCCC)OC(=O)CCCCN(C)C` (stereo not shown) [E7C114A11] had a Luciferase luminescence intensity of 9.9E+04.
To `CCCCCCCCCCC(COC(=O)C(CCCCCCCC)CCCCCCCC)OC(=O)CCCN(C)C` (stereo not shown) [E7C115A9] belongs 5.6E+04.
To `CCCCCCCCCCC(COC(=O)C(CCCCCCCCC)CCCCCCCCC)OC(=O)CCCCN(C)C` (stereo not shown) [E7C116A11] belongs 9.2E+04.
The result for `CCCCCCCCCCC(COC(=O)CC(CCCCC)CCCCCCCCC)OC(=O)CCCN(C)C` (stereo not shown) [E7C123A9] reads 4.3E+04; that for `CCCCCCCCCCC(COC(=O)CC(CCCCCC)CCCCCCCC)OC(=O)CCCCN(C)C` (stereo not shown) [E7C126A11], 3.9E+04; that for `CCCCCCCCCCC(COC(=O)CC(CCCCCCC)CCCCCCC)OC(=O)CCCN(C)C` (stereo not shown) [E7C128A9], 3.5E+04.
In turn, `CCCCCCCCCCC(COC(=O)CC(CCCCCCC)CCCCCCC)OC(=O)CCCCN(C)C` (stereo not shown) [E7C128A11] registered a Luciferase luminescence intensity of 3.6E+04.
`CCCCCCCCCCCC(COC(=O)C(CCCC)CCCCCCCCCC)OC(=O)CCCN(C)C` (stereo not shown) [E8C104A9] returned a Luciferase luminescence intensity of 3.7E+04.
The result for `CCCCCCCCCCCC(COC(=O)C(CCCCC)CCCCCCCCC)OC(=O)CCCN(C)C` (stereo not shown) [E8C109A9] reads 4.8E+04; that for `CCCCCCCCCCCC(COC(=O)C(CCCCC)CCCCCCCCCCC)OC(=O)CCCN(C)C` (stereo not shown) [E8C111A9], 4.6E+04; that for `CCCCCCCCCCCC(COC(=O)C(CCCCCCC)CCCCCCC)OC(=O)CCCN(C)C` (stereo not shown) [E8C114A9], 6.8E+04.
To `CCCCCCCCCCCC(COC(=O)C(CCCCCCC)CCCCCCC)OC(=O)CCCCN(C)C` (stereo not shown) [E8C114A11] belongs 1.3E+05.
In turn, `CCCCCCCCCCCC(COC(=O)C(CCCCCCCC)CCCCCCCC)OC(=O)CCCN(C)C` (stereo not shown) [E8C115A9] returned a Luciferase luminescence intensity of 6.0E+04.
The result for `CCCCCCCCCCCC(COC(=O)C(CCCCCCCC)CCCCCCCC)OC(=O)CCCCN(C)C` (stereo not shown) [E8C115A11] reads 1.9E+05; that for `CCCCCCCCCCCC(COC(=O)C(CCCCCCCCC)CCCCCCCCC)OC(=O)CCCCN(C)C` (stereo not shown) [E8C116A11], 5.0E+04; that for `CCCCCCCCCCCC(COC(=O)CC(CCCCC)CCCCCCCCC)OC(=O)CCCCN(C)C` (stereo not shown) [E8C123A11], 7.1E+04.
The result for `CCCCCCCCCCCC(COC(=O)CC(CCCCCCC)CCCCCCC)OC(=O)CCCN(C)C` (stereo not shown) [E8C128A9] reads 3.9E+04; that for `CCCCCCCCCCCC(COC(=O)CC(CCCCCCC)CCCCCCC)OC(=O)CCCCN(C)C` (stereo not shown) [E8C128A11], 3.5E+04; that for `CCCCCCCCCCCCC(COC(=O)C(CCCC)CCCCCCCCCC)OC(=O)CCCN(C)C` (stereo not shown) [E9C104A9], 3.6E+04.
To `CCCCCCCCCCCCC(COC(=O)C(CCCC)CCCCCCCCCC)OC(=O)CCCCN(C)C` (stereo not shown) [E9C104A11] belongs 4.4E+04; to `CCCCCCCCCCCCC(COC(=O)C(CCCCC)CCCCCCCCC)OC(=O)CCCN(C)C` (stereo not shown) [E9C109A9], 3.6E+04.
`CCCCCCCCCCCCC(COC(=O)C(CCCCC)CCCCCCCCC)OC(=O)CCCCN(C)C` (stereo not shown) [E9C109A11] gave a Luciferase luminescence intensity of 3.6E+04.
To `CCCCCCCCCCCCC(COC(=O)C(CCCCC)CCCCCCCCCCC)OC(=O)CCCCN(C)C` (stereo not shown) [E9C111A11] belongs 3.9E+04.
For the compound `CCCCCCCCCCCCC(COC(=O)C(CCCCCCC)CCCCCCC)OC(=O)CCCN(C)C` (stereo not shown) [E9C114A9], the Luciferase luminescence intensity turned out to be 9.1E+04.
To `CCCCCCCCCCCCC(COC(=O)C(CCCCCCC)CCCCCCC)OC(=O)CCCCN(C)C` (stereo not shown) [E9C114A11] belongs 8.5E+04; to `CCCCCCCCCCCCC(COC(=O)C(CCCCCCCC)CCCCCCCC)OC(=O)CCCN(C)C` (stereo not shown) [E9C115A9], 1.4E+05.
To `CCCCCCCCCCCCC(COC(=O)C(CCCCCCCC)CCCCCCCC)OC(=O)CCCCN(C)C` (stereo not shown) [E9C115A11] belongs 1.9E+05; to `CCCCCCCCCCCCC(COC(=O)C(CCCCCCCCC)CCCCCCCCC)OC(=O)CCCCN(C)C` (stereo not shown) [E9C116A11], 7.6E+04.
To `CCCCCCCCCCCCC(COC(=O)CC(CCCCC)CCCCCCCCC)OC(=O)CCCCN(C)C` (stereo not shown) [E9C123A11] belongs 5.1E+04.
For the compound `CCCCCCCCCCCCC(COC(=O)CC(CCCCCCC)CCCCCCC)OC(=O)CCCN(C)C` (stereo not shown) [E9C128A9], the Luciferase luminescence intensity came out at 3.7E+04.
To `CCCCCCCCCCCCC(COC(=O)CC(CCCCCCC)CCCCCCC)OC(=O)CCCCN(C)C` (stereo not shown) [E9C128A11] belongs 3.5E+04; to `CCCCCCCCCCCCCC(COC(=O)C(CCCC)CCCCCCCCCCCC)OC(=O)CCCN(C)C` (stereo not shown) [E10C106A9], 4.2E+04.
To `CCCCCCCCCCCCCC(COC(=O)C(CCCCC)CCCCCCCCC)OC(=O)CCCCN(C)C` (stereo not shown) [E10C109A11] belongs 3.5E+04.
The result for `CCCCCCCCCCCCCC(COC(=O)C(CCCCC)CCCCCCCCCCC)OC(=O)CCCN(C)C` (stereo not shown) [E10C111A9] reads 3.7E+04; that for `CCCCCCCCCCCCCC(COC(=O)C(CCCCCCC)CCCCCCC)OC(=O)CCCN(C)C` (stereo not shown) [E10C114A9], 4.3E+04; that for `CCCCCCCCCCCCCC(COC(=O)C(CCCCCCC)CCCCCCC)OC(=O)CCCCN(C)C` (stereo not shown) [E10C114A11], 7.6E+04.
On to `CCCCCCCCCCCCCC(COC(=O)C(CCCCCCCC)CCCCCCCC)OC(=O)CCCN(C)C` (stereo not shown) [E10C115A9], for which the Luciferase luminescence intensity was 4.4E+04.
The result for `CCCCCCCCCCCCCC(COC(=O)C(CCCCCCCC)CCCCCCCC)OC(=O)CCCCN(C)C` (stereo not shown) [E10C115A11] reads 8.2E+04.
On to `CCCCCCCCCCCCCC(COC(=O)CC(CCCCCCC)CCCCCCC)OC(=O)CCCN(C)C` (stereo not shown) [E10C128A9], for which the Luciferase luminescence intensity is recorded as 3.8E+04.
With `CCCCCCCCCCCCCC(COC(=O)CC(CCCCCCC)CCCCCCC)OC(=O)CCCCN(C)C` (stereo not shown) [E10C128A11], the Luciferase luminescence intensity was determined as 4.7E+04.
The result for `CCCCCCCCCCCCCCC(COC(=O)C(CCCCC)CCCCCCCCC)OC(=O)CCCN(C)C` (stereo not shown) [E11C109A9] reads 4.3E+04; that for `CCCCCCCCCCCCCCC(COC(=O)C(CCCCC)CCCCCCCCC)OC(=O)CCCCN(C)C` (stereo not shown) [E11C109A11], 4.8E+04; that for `CCCCCCCCCCCCCCC(COC(=O)C(CCCCCCC)CCCCCCC)OC(=O)CCCN(C)C` (stereo not shown) [E11C114A9], 4.5E+04.
To `CCCCCCCCCCCCCCC(COC(=O)C(CCCCCCC)CCCCCCC)OC(=O)CCCCN(C)C` (stereo not shown) [E11C114A11] belongs 6.5E+04.
The result for `CCCCCCCCCCCCCCC(COC(=O)C(CCCCCCCC)CCCCCCCC)OC(=O)CCCN(C)C` (stereo not shown) [E11C115A9] reads 4.9E+04; that for `CCCCCCCCCCCCCCC(COC(=O)C(CCCCCCCC)CCCCCCCC)OC(=O)CCCCN(C)C` (stereo not shown) [E11C115A11], 6.3E+04.
In the case of `CCCCCCCCCCCCCCC(COC(=O)CC(CCCCCC)CCCCCCCC)OC(=O)CCCN(C)C` (stereo not shown) [E11C126A9], the Luciferase luminescence intensity came to 3.6E+04.
The result for `CCCCCCCCCCCCCCC(COC(=O)CC(CCCCCCC)CCCCCCC)OC(=O)CCCN(C)C` (stereo not shown) [E11C128A9] reads 3.9E+04.
To `CCCCCCCCCCCCCCC(COC(=O)CC(CCCCCCC)CCCCCCC)OC(=O)CCCCN(C)C` (stereo not shown) [E11C128A11] belongs 4.2E+04.

Values taken from US12679801B2, “Amino lipid and preparation method and application thereof” (Shenzhen MagicRNA Biotechnology Co., Ltd., priority 2022, dated 2026).
